Reference: PubChem BioAssay AID1963962 (Molecular Pharmacology Branch, DTP, NCI, 2024)

Test system: 967376-340-R-J2-PDC multicell spheroid viability
Assay: Anticancer human tumor 967376-340-R-J2-PDC patient-derived colon adenocarcinoma cell line growth inhibition [PI3K]
Settings: for IC50: curve of first compound; for viability, T/C: stronger effect = lower value
Source text: Combinatorial screen of targeted agents with the PI3K inhibitors inavolisib, alpelisib, duvelisib, and copanlisib in multi-cell type tumor spheroids
A high-throughput screen of multi-cell type tumor spheroids was designed to identify active combinations of targeted small molecules and PI3K pathway inhibitors. Complex spheroids include a stromal component modeled by human endothelial cells (HUVEC) and fibroblasts modeled by human mesenchymal stem cells (MSCs). The concentration ranges selected for each drug and investigational agent were based upon clinically achievable concentrations if the clinical Cmax of the agent was known.
Compounds. The drugs and investigational agents: inavolisib (NSC800729), alpelisib (NSC765974), duvelisib (NSC772469), copanlisib (NSC816437), ipatasertib (NSC767898), afuresertib (NSC778305), talazoparib (NSC767125), sapanisertib (NSC764658), selumetinib (NSC741078), tovorafenib (DAY101, NSC766906), vemurafenib (NSC761431), ravoxertinib (NSC781343), sotorasib (NSC818433), MRTX1133 (NSC 836407), abemaciclib (NSC 768073), palbociclib (NSC758247), venetoclax (NSC 766270), SY5609 (NSC837396), enzalutamide (NSC755605), and darolutamide (NSC825331), were obtained from the National Cancer Institute (NCI) Developmental Therapeutics Program Chemical Repository. The FDA-approved anticancer drug set is available from the NCI Developmental Therapeutics Program. […] The stock solutions were prepared in dimethyl sulfoxide (DMSO, Sigma-Aldrich, St. Louis, MO, cat. D2650) at 800-fold the tested concentration and stored at -70 degrees C prior to their use. All drugs and investigational agents were tested over a range starting from a high concentration at or near the clinical Cmax and decreasing in half-log increments. If the clinical Cmax for an agent had not been determined, the highest concentration tested was 10 microM.
Cell Culture. All cells were maintained in an incubator at 37 degrees C and 5% CO2 with 95% humidity. The PDC lines were cultured according to standard operating procedures established by the NCI PDMR (https://pdmr.cancer.gov/sops/default.htm). All PDCs were thawed and cultured in Matrigel-coated flasks prepared with a working solution of 1X Ham's F-12 nutrient mix, without supplementation (Invitrogen, Waltham, MA, cat. 11765054), 100 U/mL penicillin-streptomycin (Invitrogen, cat. 15140122), and 2.5% Matrigel (Corning Inc., Corning, NY, cat. 354248) for the first three passages. The 354836-022-R-J1-PDC, 475296-252-R-J1-PDC, and 997726-040-R-J2-PDC lines were cultured in 6A media, which includes advanced DMEM/F-12 (Thermo Fisher Scientific, cat. 12634028), 10 mM HEPES (Thermo Fisher Scientific, cat. 15630080), 1X GlutaMAX supplement (Thermo Fisher Scientific, cat. 35050061), 0.1 mg/mL primocin (InvivoGen, San Diego, CA, cat. ant-pm-2), 10% defined fetal bovine serum, heat inactivated (HyClone Laboratories Inc., Logan, UT, cat. SH30070.03HI), 50% L-WRN conditioned media (ATCC, cat. CRL-3276), 1.25 mM N-Acetyl-L-cysteine (Sigma-Aldrich, cat. A9165), 10 mM nicotinamide (Sigma-Aldrich, cat. N0636), 1X B-27 supplement (Thermo Fisher Scientific, cat. 17504044), 1X N-2 supplement (Thermo Fisher Scientific, cat. 17502048), and 10 microM Y-27632 dihydrochloride (Tocris Bioscience, Bristol, United Kingdom, cat. 1254). The 624824-186-R-J2-PDC line was cultured in 6C/Colon 1B media, which includes all 6A media components plus 50 ng/mL human EGF recombinant protein (Thermo Fisher Scientific, cat. PHG0311). […]

[1] = second compound 0.0316 µM, first compound 0.0316 µM
[2] = second compound 0.0316 µM, first compound 0.1 µM
[3] = second compound 0.0316 µM, first compound 0.316 µM
[4] = second compound 0.0316 µM, first compound 1 µM
[5] = second compound 0.0316 µM, first compound 3.16 µM
[6] = second compound 0.0316 µM, first compound 10 µM
[7] = second compound 0.1 µM, first compound 0.0316 µM
[8] = second compound 0.1 µM, first compound 0.1 µM
[9] = second compound 0.1 µM, first compound 0.316 µM
[10] = second compound 0.1 µM, first compound 1 µM
[11] = second compound 0.1 µM, first compound 3.16 µM
[12] = second compound 0.1 µM, first compound 10 µM
[13] = second compound 0.316 µM, first compound 0.0316 µM
[14] = second compound 0.316 µM, first compound 0.1 µM
[15] = second compound 0.316 µM, first compound 0.316 µM
[16] = second compound 0.316 µM, first compound 1 µM
[17] = second compound 0.316 µM, first compound 3.16 µM
[18] = second compound 0.316 µM, first compound 10 µM
[19] = second compound 1 µM, first compound 0.0316 µM
[20] = second compound 1 µM, first compound 0.1 µM
[21] = second compound 1 µM, first compound 0.316 µM
[22] = second compound 1 µM, first compound 1 µM
[23] = second compound 1 µM, first compound 3.16 µM
[24] = second compound 1 µM, first compound 10 µM
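Also: spheroids exposed to agents for 7 days before read-out.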
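For viability, T/C in this document: luminescence used as surrogate of cell viability.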

For `C[C@@H](NC(=O)c1ncnc(N)c1Cl)c1ncc(C(=O)Nc2cc(C(F)(F)F)c(Cl)cn2)s1` + CC(Nc1ncnc2nc[nH]c12)c1cc2cccc(Cl)c2c(=O)n1-c1ccccc1, the IC50 (second compound 0.0316 µM) was > 10 µM, the IC50 (second compound 0.1 µM) was > 10 µM and the IC50 (second compound 0.316 µM) was > 10 µM. For the same molecule, the IC50 (second compound 1 µM) was > 10 µM, the IC50 (second compound 3.16 µM) was > 10 µM and the IC50 (second compound 10 µM) was > 10 µM. The viability, T/C [1] was 100%, the viability, T/C [2] was 129% and the viability, T/C [3] was 109%. The viability, T/C [4] was 104%, the viability, T/C [5] was 101% and the viability, T/C [6] was 98.9%. It also gave a viability, T/C [7] of 123%, a viability, T/C [8] of 112% and a viability, T/C [9] of 90.5%. For the same molecule, the viability, T/C [10] was 102%, the viability, T/C [11] was 110% and the viability, T/C [12] was 117%. The viability, T/C [13] was 92.5%, the viability, T/C [14] was 102% and the viability, T/C [15] was 109%. It also gave a viability, T/C [16] of 107%, a viability, T/C [17] of 96.9% and a viability, T/C [18] of 110%. For the same molecule, the viability, T/C [19] was 114%, the viability, T/C [20] was 97.8% and the viability, T/C [21] was 99.7%. It also gave a viability, T/C [22] of 90.7%, a viability, T/C [23] of 127% and a viability, T/C [24] of 106%. It also gave a viability, T/C (second compound 3.16 µM, first compound 0.0316 µM) of 95.9%, a viability, T/C (second compound 3.16 µM, first compound 0.1 µM) of 92.2% and a viability, T/C (second compound 3.16 µM, first compound 0.316 µM) of 106%. For the same molecule, the viability, T/C (second compound 3.16 µM, first compound 1 µM) was 92.8%, the viability, T/C (second compound 3.16 µM, first compound 3.16 µM) was 97.3% and the viability, T/C (second compound 3.16 µM, first compound 10 µM) was 113%. It also gave a viability, T/C (second compound 10 µM, first compound 0.0316 µM) of 79.7%, a viability, T/C (second compound 10 µM, first compound 0.1 µM) of 97.2% and a viability, T/C (second compound 10 µM, first compound 0.316 µM) of 106%. For the same molecule, the viability, T/C (second compound 10 µM, first compound 1 µM) was 97.1%, the viability, T/C (second compound 10 µM, first compound 3.16 µM) was 107% and the viability, T/C (second compound 10 µM, first compound 10 µM) was 119%.
With `Cn1cnc2c(F)c(Nc3ccc(Br)cc3Cl)c(C(=O)NOCCO)cc21` the viability, T/C (compound 0.00949 µM) was 89.9% [middle of 4 runs], the viability, T/C (compound 0.03 µM) was 97.7% [middle of 4 runs] and the viability, T/C (compound 0.0949 µM) was 87.6% [middle of 4 runs].
With `CNC(=O)c1ccc(N2C(=S)N(c3ccc(C#N)c(C(F)(F)F)c3)C(=O)C2(C)C)cc1F` + CC(Nc1ccc2c(c1)OCCn1cc(N3C(=O)OCC3C(F)F)nc1-2)C(N)=O the IC50 (second compound 0.00316 µM) was > 10 µM, the IC50 (second compound 0.01 µM) was > 10 µM and the IC50 (second compound 0.0316 µM) was > 10 µM. The IC50 (second compound 0.1 µM) was > 10 µM, the IC50 (second compound 0.316 µM) was > 10 µM and the IC50 (second compound 1 µM) was > 10 µM. The viability, T/C (second compound 0.00316 µM, first compound 0.0316 µM) was 90.3%, the viability, T/C (second compound 0.00316 µM, first compound 0.1 µM) was 107% and the viability, T/C (second compound 0.00316 µM, first compound 0.316 µM) was 93.1%. The viability, T/C (second compound 0.00316 µM, first compound 1 µM) was 93.2%, the viability, T/C (second compound 0.00316 µM, first compound 3.16 µM) was 112% and the viability, T/C (second compound 0.00316 µM, first compound 10 µM) was 161%. For the same molecule, the viability, T/C (second compound 0.01 µM, first compound 0.0316 µM) was 102%, the viability, T/C (second compound 0.01 µM, first compound 0.1 µM) was 97.8% and the viability, T/C (second compound 0.01 µM, first compound 0.316 µM) was 94.3%. The viability, T/C (second compound 0.01 µM, first compound 1 µM) was 89.5%, the viability, T/C (second compound 0.01 µM, first compound 3.16 µM) was 106% and the viability, T/C (second compound 0.01 µM, first compound 10 µM) was 136%. The viability, T/C [1] was 83.1%, the viability, T/C [2] was 107% and the viability, T/C [3] was 94.1%. For the same molecule, the viability, T/C [4] was 76.7%, the viability, T/C [5] was 100% and the viability, T/C [6] was 99.5%. For the same molecule, the viability, T/C [7] was 72.4%, the viability, T/C [8] was 73.1% and the viability, T/C [9] was 73.5%. The viability, T/C [10] was 81.1%, the viability, T/C [11] was 77.4% and the viability, T/C [12] was 81%. It also gave a viability, T/C [13] of 60.4%, a viability, T/C [14] of 60.6% and a viability, T/C [15] of 72.5%. It also gave a viability, T/C [16] of 66.5%, a viability, T/C [17] of 62.1% and a viability, T/C [18] of 67.5%. The viability, T/C [19] was 57.3%, the viability, T/C [20] was 66% and the viability, T/C [21] was 62.7%. For the same molecule, the viability, T/C [22] was 60.8%, the viability, T/C [23] was 61.6% and the viability, T/C [24] was 67.5%.
